For one data set, the system named is Hemangioma tumor cells. Description: MTT proliferation inhibition, hemangioma cells. The format is cell-based, human. Also on record: concentration or dose not given beside the values. The note with it: 48 h. The method, then: The activity of mPEG-HM-1 to inhibit the growth of various tumor cells was examined by MTT assay. The tumor cells were cultured to a concentration of 90% or more in a 37° C., 5% CO2 incubator and collected by trypsinization. The cells were resuspended in the culture medium and counted under a microscope to adjust the cell concentration to 2×10^4 cells/mL, the cell suspension was inoculated into a 96-well plate at 100 μL/well and incubated overnight at 37° C. in a 5% CO2 incubator. mPEG-HM-1 was diluted with the culture solution to each predetermined concentration. Docetaxel is diluted to the final concentration with the culture medium. After the cells were fully attached, each dilution was added to a 96-well plate (100 μL/well). The mPEG-HM-1 dilution was added as a drug-administered group, and docetaxel was added as a positive control group, and a culture solution without any drug was used as a negative control group. Incubate for 48 h at 37° C. in a 5% CO2 incubator. 5 mg/mL of MTT was added to a 96-well plate at 20 μL per well, and incubation was continued for 4 hours. The medium was aspirated, dissolved in 150 μL of DMSO per well, and gently mixed by shaking for 10 min. The absorbance was measured at a measurement wavelength of 570 nm and a reference wavelength of 630 nm using a microplate reader, and the rate of growth inhibition (proliferation inhibition, PI) was calculated. The formula is as follows: PI (%)=1−administration group/negative group
The test was repeated 3 times independently, and the results obtained by the test were expressed as mean±SD, and the test results are shown in Table 15 to Table 18.

Data set [1] relates to human retinal vascular endothelial cells (HRCEC). Description: MTT proliferation of human retinal vascular endothelial cells. The class given is cell-based. To be noted: 48 h; for Inhibition rate: HRCEC proliferation; for A570 nm-A630 nm: HRCEC. Here is the method:
The activity of the angiogenesis inhibitor polypeptide to inhibit proliferation of human retinal vascular endothelial cells was examined by MTT assay. HRCEC cells were cultured in a 37° C., 5% CO2 incubator to a density of 90% or more, and collected by trypsinization. The cells were resuspended in the culture medium and counted under a microscope to adjust the cell concentration to 3.0×10^4 cells/mL. The cell suspension was inoculated into a 96-well plate at 100 μL per well and cultured overnight at 37° C. in a 5% CO2 incubator. After the cells were completely adhered, the angiogenesis inhibitor polypeptide was added as the administration group, and Avastin was used as the positive control group, and the culture media without any drug was used as a blank control group, and the culture media were diluted to each predetermined concentration. Each dilution was separately added to a 96-well plate at 100 μL per well and incubated for 48 h at 37° C. in a 5% CO2 incubator. 20 μL of 5 mg/mL MTT was added to each well of a 96-well plate and incubation was continued for 4 h. The medium was aspirated and dissolved in 100 μL of DMSO per well. […] The formula is as follows: PI (%)=1−administration group/negative group
The test was repeated 3 times independently. The results obtained by the test were expressed as mean±SD, and a statistical T test was performed. *P<0.05 was a significant difference, and **P<0.01 was a very significant difference.

The test system of data set [2] is adjuvant arthritis (AA) SD rats. Description: Adjuvant arthritis (AA) rat model. The class given is in vivo. The note with it: for Joint swelling / Left and right paw swelling / Clinical score: AA SD rats; for Clinical score: maximum score 16.
For data set [3] the following is noted: in vivo.
Data set [4] has as its system neovascularization in rat model of premature retinopathy. Description: Fluctuating-oxygen rat model of premature retinopathy (endothelial nuclei count). The class given is in vivo. To be noted: day 14. The method, then:
A fluctuating oxygen-induced animal model was used to randomly divide the newborn rats that were naturally delivered on the same day (within 12 hours) into three groups: the oxygenated model group, the oxygenated treatment group, and the normal control group. The oxygenated model group was subdivided into three subgroup models and along with the oxygenated treatment group was placed in a semi-closed oxygen chamber made of plexiglass. The chamber was connected to medical oxygen, and the oxygen analyzer was adjusted to a concentration of 80%±2%. After 24 hours, Nitrogen gas was introduced into the oxygen chamber, and the oxygen concentration was adjusted to 10%±2% and maintained for 24 h. This process was repeated, so that the oxygen concentration in the oxygen chamber is switched between 80% and 10% every 24 hours, and then transferred to the air for 7 days. The oxygen concentration was monitored 8 times a day, and the ambient temperature in the control cabin was 23° C.±2° C. Bedding change, adding food, changing water and replacing mother rats were performed once a day. The normal control group was placed in an animal facility environment. […] The oxygenated therapeutic components were divided into four subgroups, and on the 7th day of modeling, mPEG-SC-HM-1, mPEG2-NHS-HM-1, mPEG-ALD10k-HM-1, and mPEG-bALD-HM-1 were respectively administered by intravitreal injection. Only normal saline was administered to the oxygen model group and the control group. The administrations continued for 1 week. […] After immersion in wax, serial section at thickness of 4 μm was performed, wherein the sections were kept away from the optic disc. The sections are parallel to the sagittal plane of the cornea to the optic disc. Ten sections per eyeball were randomly selected from each eyeball to be stained with hematoxylin and eosin, and the number of vascular endothelial cells that broke through the retinal inner membrane was counted (only the vascular endothelial nucleus closely related to the inner retinal membrane was counted), and the average numbers of endothelial cells per eyeball per slice was counted.

The mark [5] stands for this setting: 40 mg/kg subcutaneous once every three days.
Setting [6] is: 20 mg/kg subcutaneous once every three days.
The mark [7] stands for this setting: 10 mg/kg subcutaneous once every three days.

Marks after values point to notes of the source that are not given here. Where no end group is shown, it is not given here.

“mPEG-SC20k-Arg-Gly-Ala-Asp-Arg-Ala-Gly-Gly-Gly-Gly-Arg-Gly-Asp ({mPEG‑SC 20 kDa}-RGADRAGGGGRGD) [mPEG-SC20k-HM-1]”: the “rate of growth inhibition” value with Hemangioma tumor cells came to 55.63 ± 18.30%. In data set [1] (60 μg/mL), this substance yielded an Inhibition rate of 45.71%*. The “A570 nm-A630 nm” value in data set [1] (60 μg/mL, MTT) worked out at 0.7116 ± 0.07539. Further, in data set [1] (80 μg/mL), the Inhibition rate was 53.92%**. In addition, the “A570 nm-A630 nm” value in data set [1] (80 μg/mL, MTT) worked out at 0.6040 ± 0.06996. The substance further registered an Inhibition rate in data set [1] (100 μg/mL) of 66.64%*. Besides, the “A570 nm-A630 nm” value in data set [1] (100 μg/mL, MTT) came to 0.4372 ± 0.0721. In data set [2] (setting [5]), the Joint swelling is reported as 0.81 ± 0.20 mm; the “Left and right paw swelling” value is 3.75 ± 0.67 mm; the Clinical score turned out to be 5.83 ± 1.01. Besides, in data set [3], the “AUC0-∞” value amounted to 4310.23 ± 12.98 mg/L/h, the CL is 0.225 ± 0.155 mL/min/kg, the “MRT0-∞” value was 17.64 ± 12.67 h and the “T1/2β (half-life)” value came to 21.46 ± 0.24 h. The substance further showed a Cell nuclei count in data set [4] (100 μg intravitreal for 1 week from day 7, vascular endothelial nuclei per slice) of 7.372 ± 2.078.

As for “mPEG-SC10k-Arg-Gly-Ala-Asp-Arg-Ala-Gly-Gly-Gly-Gly-Arg-Gly-Asp ({mPEG‑SC 10 kDa}-RGADRAGGGGRGD) [mPEG-SC10k-HM-1]”, in the data set on Hemangioma tumor cells, the “rate of growth inhibition” value is given as 52.88 ± 13.66%. The substance further returned an Inhibition rate in data set [1] (40 μg/mL) of 46.44%*. In data set [1] (40 μg/mL, MTT), the “A570 nm-A630 nm” value is recorded as 0.7020 ± 0.07964. The Inhibition rate in data set [1] (60 μg/mL) is 55.39%**. Also, the “A570 nm-A630 nm” value in data set [1] (60 μg/mL, MTT) is 0.5847 ± 0.07356. Further, in data set [1] (80 μg/mL, MTT), the “inhibition rate of HRCEC proliferation” value turned out to be 68.84% and the “A570 nm-A630 nm” value was determined as 0.4084 ± 0.07298. In data set [1] (80 μg/mL), the Inhibition rate came to 68.84%*. Besides, in data set [2] (setting [6]), the Joint swelling is reported as 0.70 ± 0.18 mm; the “Left and right paw swelling” value was 3.81 ± 0.71 mm; the Clinical score is reported as 5.52 ± 1.07. Also, the “in vivo immune protection effect on adjuvant arthritis model (in words)” value in data set [2] (AA rats, subcutaneous, once every three days, vs model group) was “has the most significant effect”. Besides, in data set [3], the “AUC0-∞” value was 4671.86 ± 10.76 mg/L/h, the CL turned out to be 0.455 ± 0.0933 mL/min/kg, the “MRT0-∞” value is 12.67 ± 5.84 h and the “T1/2β (half-life)” value is on record as 15.18 ± 0.11 h. In data set [4] (50 μg intravitreal for 1 week from day 7, vascular endothelial nuclei per slice), the Cell nuclei count worked out at 8.528 ± 3.109.

In the case of “mPEG-SC5k-Arg-Gly-Ala-Asp-Arg-Ala-Gly-Gly-Gly-Gly-Arg-Gly-Asp ({mPEG‑SC 5 kDa}-RGADRAGGGGRGD) [mPEG-SC5k-HM-1]”, the “rate of growth inhibition” value in the data set with Hemangioma tumor cells was 43.68 ± 12.53%. In data set [1] (20 μg/mL), this substance had an Inhibition rate of 42.22%*. The “A570 nm-A630 nm” value in data set [1] (20 μg/mL, MTT) worked out at 0.7573 ± 0.09088. This substance came in with an Inhibition rate in data set [1] (40 μg/mL) of 51.76%**. Moreover, the “A570 nm-A630 nm” value in data set [1] (40 μg/mL, MTT) is 0.6323 ± 0.08797. In data set [1] (60 μg/mL), this substance gave an Inhibition rate of 62.10%*. Moreover, the “A570 nm-A630 nm” value in data set [1] (60 μg/mL, MTT) amounted to 0.4968 ± 0.08679. In data set [2] (setting [7]), the Joint swelling amounted to 0.74 ± 0.18 mm; the “Left and right paw swelling” value was determined as 3.96 ± 0.71 mm; the Clinical score is 5.95 ± 1.07. Moreover, in data set [3], the “AUC0-∞” value came out at 4391.72 ± 12.85 mg/L/h, the CL amounted to 0.997 ± 0.18 mL/min/kg, the “MRT0-∞” value stood at 7.68 ± 2.97 h and the “T1/2β (half-life)” value was determined as 8.31 ± 0.12 h. The Cell nuclei count in data set [4] (25 μg intravitreal for 1 week from day 7, vascular endothelial nuclei breaking through inner retinal membrane per slice) is 9.104 ± 3.087.

The values are drawn from US10869931B2, “Polyethylene glycol-modified angiogenesis inhibitor HM-1 and application thereof” (NANJING ANJI BIOLOGICAL TECHNOLOGY CO.,LTD, priority 2016, dated 2020).
